{"source": "patent US12629348B2", "about": "“Method and composition for treating osteoarthritis” (Vireo Systems, Inc., priority 2013, dated 2026)", "key": {"cyclooxygenase-1 (COX-1)": {"target": "cyclooxygenase-1 (COX-1) (Homo sapiens, UniProt P23219)", "sequence (P23219 24-599, species assumed)": "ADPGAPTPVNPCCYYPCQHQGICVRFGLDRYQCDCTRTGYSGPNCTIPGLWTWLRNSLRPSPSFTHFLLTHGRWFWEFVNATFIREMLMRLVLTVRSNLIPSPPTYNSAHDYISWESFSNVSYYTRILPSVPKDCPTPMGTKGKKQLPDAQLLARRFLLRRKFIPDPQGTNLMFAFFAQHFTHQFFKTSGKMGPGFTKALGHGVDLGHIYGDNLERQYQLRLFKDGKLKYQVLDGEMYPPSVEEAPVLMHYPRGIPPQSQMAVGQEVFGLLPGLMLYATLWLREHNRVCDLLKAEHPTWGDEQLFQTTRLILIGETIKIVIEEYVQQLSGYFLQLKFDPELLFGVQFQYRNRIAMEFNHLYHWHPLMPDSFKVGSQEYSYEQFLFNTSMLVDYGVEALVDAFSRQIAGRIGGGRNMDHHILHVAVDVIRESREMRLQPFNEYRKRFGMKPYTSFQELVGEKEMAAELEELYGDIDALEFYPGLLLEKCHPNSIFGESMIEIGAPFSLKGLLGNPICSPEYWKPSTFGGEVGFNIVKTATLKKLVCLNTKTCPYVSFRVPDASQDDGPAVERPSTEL", "assay": "Inhibition of cyclooxygenase-1 activity"}, "canines having OA [1]": {"tested_on": "canines having OA", "assay": "Double-blind randomized trial in OA canines: daily activity by pedometer", "assay_type": "in vivo, canine", "conditions": "36 mg/kg/day oral", "description": "The double-blind study was performed on a total of 30 adult canines of various breeds in five different private practice clinics. Owner consent was obtained prior to participation in the study. Each clinic was responsible for enrolling 6 canines into the study. Inclusion criteria for the study consisted of clinical assessment and radiograph confirmation of OA in at least one joint and a score of 22 or greater on the Helsinki chronic pain index (“HCPI”). Use of NSAIDs or other dietary supplements for OA were allowed, provided the current treatment regimens had not been altered for a period of at least three months. […] Canines participating in the study were also fitted with pedometers (Draco Tech International, Taiwan) to quantitatively track changes in daily activity during the course of the study. […] The pedometers were fitted onto the collars at the clinic, and owners were instructed on care and maintenance of the pedometers and provided a log book to record the daily pedometer readings. Pedometer readings were recorded on a daily basis starting one week prior to the study and continuing throughout the two-week trial period. The daily pedometer readings recorded throughout an entire week (7-day period) were used to determine the average daily activity during the baseline period (one week prior to the start of the study) and the first and second weeks of the trial. […]"}, "canines having OA [2]": {"tested_on": "canines having OA", "assay": "Double-blind randomized trial in OA canines: owner assessment of pain and mobility (Helsinki chronic pain index, HCPI)", "assay_type": "in vivo, canine", "description": "The following example evaluates the effectiveness of Alpha-GEE on both pain and mobility in a double-blind randomized trial in canines having OA. […] Together these findings provide clinical evidence of the effectiveness of treatments with Alpha-GEE in reducing the pain and restricted mobility of canines with OA.\nThe double-blind study was performed on a total of 30 adult canines of various breeds in five different private practice clinics. Owner consent was obtained prior to participation in the study. Each clinic was responsible for enrolling 6 canines into the study. Inclusion criteria for the study consisted of clinical assessment and radiograph confirmation of OA in at least one joint and a score of 22 or greater on the Helsinki chronic pain index (“HCPI”). Use of NSAIDs or other dietary supplements for OA were allowed, provided the current treatment regimens had not been altered for a period of at least three months. A randomized block design was used with canines assigned in a one to one ratio into either placebo (36 mg/kg/day maltose-dextran; Vireo Resources, Plattsmouth, NE) or Alpha-GEE (36 mg/kg/day; Vireo Resources, Plattsmouth, NE) treatment group. The block size was six canines, corresponding to the total number of canines enrolled from each clinic. Group assignments for each canine were blinded to both the owners and attending veterinarian until all the data was collected and reported. Both Alpha-GEE and placebo were provided in 400 mg capsules and owners were instructed on the proper method for daily oral administration of capsules to their canines and provided with the appropriate number of capsules for the duration of the 2-week study. Blood samples were taken at both the start and conclusion of the two-week trial period to monitor for changes in blood chemistry as well as potential changes in inflammatory markers as described below. Owners completed the HCPI prior to starting the study, one-week after starting the study, and a final time at the conclusion of the study at two-weeks.\nStatistical evaluations of pain (HCPI), mobility (pedometer readings), and inflammatory markers were performed using ANOVA and Student Newman Keuls post-hoc comparison of means.\nOwner assessment of pain and mobility in canines participating in the trial were based on the HCPI. The HCPI is a method for appraisal of pain and mobility in canines. The assessment is based on owner responses to eleven questions with a numerical answer between 0-4. Scoring on the HCPI ranges from 0 to 44, with higher numbers reflecting more pain and immobility present in the canine. Canines in both placebo and treatment group had similar initial pre-trial HCPI scores. […]"}}}
{"substance": "ethyl (α-guanido-methyl) ethanoate [Alpha-GEE]", "values": [{"measurement": "inhibition of COX-1 activity", "setting": "cyclooxygenase-1 (COX-1); 0.1 μM", "value": "about 20%"}, {"measurement": "inhibition of COX-1 activity", "setting": "cyclooxygenase-1 (COX-1); 1 μM (first of three values printed for '1 μM and 100 μM')", "value": "about 20%"}, {"measurement": "inhibition of COX-1 activity", "setting": "cyclooxygenase-1 (COX-1); 100 μM (third of three values printed for '1 μM and 100 μM')", "value": "about 15%"}, {"measurement": "concentration dependency of inhibition of COX-1", "setting": "cyclooxygenase-1 (COX-1); 0.1-100 μM, FIG. 2", "value": "did not show a concentration dependency"}, {"measurement": "inhibition of COX-1 activity", "setting": "cyclooxygenase-1 (COX-1); concentration not printed (second of three values printed for '1 μM and 100 μM')", "value": "about 15%"}, {"measurement": "increase in daily pedometer readings (mobility)", "setting": "canines having OA [1]; first week versus baseline week, p<0.05 vs placebo", "value": "approximately 20%"}, {"measurement": "increase in daily pedometer readings (mobility, physical activity)", "setting": "canines having OA [1]; second week versus baseline week, p<0.01 vs placebo", "value": "approximately 30%"}, {"measurement": "reduction in HCPI score", "setting": "canines having OA [2]; after the first week, 36 mg/kg/day oral, not statistically different from placebo", "value": "10-15%"}, {"measurement": "HCPI score, post-trial value", "setting": "canines having OA [2]; after two weeks, 36 mg/kg/day oral, pre-trial value 28, scale 0 to 44", "value": 15}, {"measurement": "HCPI scores at the conclusion of the study versus placebo", "setting": "canines having OA [2]; two weeks, p<0.001", "value": "significantly different"}, {"measurement": "magnitude of change in HCPI scores during the entire trial (mean+SD)", "setting": "canines having OA [2]; two weeks, range 2 to 20, placebo 3+4", "value": "13+7"}]}
